From paper PMC3516806 (Scientific Reports, 2012)

Biological target: BoGT6a (Bacteroides ovatus, UniProt A0ABU3IMV7)
Assay: ITC, […]°C, HEPES pH […], no metal
Format: binding

CC(=O)N[C@H]1[C@@H](OP(=O)(O)OP(=O)(O)OC[C@H]2O[C@@H](n3ccc(=O)[nH]c3=O)[C@H](O)[C@@H]2O)O[C@H](CO)[C@H](O)[C@@H]1O [UDP-GalNAc]
Kd: 59 µM
